Measurements from patent US11166947B2, “Effective dosing of a child for the treatment of ADHD with methylphenidate” (Neos Therapeutics, LP, priority 2016, dated 2021).
In brackets after ≈: the same amount, converted by molar mass.

Tested on: pediatric patients with ADHD
Experiment: Integrated PKPD model fit to SKAMP total score measurements from the Day 7 classroom evaluation
Type: in vivo, human
Conditions: base (final) PKPD model estimate, 81 pediatric patients
Source text: This example describes the development of a pharmacokinetic-pharmacodynamic model for the therapeutic effect of a particular methylphenidate formulation and its testing on a population of pediatric patients with ADHD. The drug formulation tested in this example is designated MPH XR-ODT and described in U.S. Publication No. 2014/0030348, which is incorporated herein by reference.
The structural PK model for a plasma concentration following administration of the stimulant was described by two parallel inputs into a central compartment and linear elimination from the central compartment.
Body weight appears as a covariate of CL and V which was included in the model in the following way: CLi=tvCL*Weight^0.655 Equation 1 Vi=tvV*Weight^0.670 Equation 2 where CL, and V, are the clearance and volume of distribution parameters for individual “i”, tvCL and tvV are the typical population clearance and volume of distribution parameters, and weight is body weight in kg. Model parameters were determined using nonlinear mixed-effects modeling with first-order conditional maximum likelihood estimation using Phoenix NLME (Version 6.3).
This phenomenon was readily obvious in the patients that were assigned to the placebo treatment arm. Therefore, the PD model required a drug effect component and a placebo effect component. […]

COC(=O)C(c1ccccc1)C1CCCCN1 (centres unmarked) [methylphenidate]
EC50 (Homo sapiens, simulated plasma concentrations, read-out: EC50, concentration of methylphenidate required to achieve 50% of the maximal reduction in SKAMP total score): 0.0142 µg/mL (≈ 0.061 µM) | Emax, maximum reduction in SKAMP total score with administration of methylphenidate: 38.1
